# Experimental data from patent US9974792B2, “Methods for treating cancers” (Gilead Sciences, Inc., priority 2013, dated 2018).
# Key:
# [1] = tested on: tumor necrosis factor alpha (TNF-α); test: Example 2: serum chemokine/cytokine levels; assay type: in vivo, human; details: days 8 and 29 of therapy
# Description: (§1) A bone marrow biopsy and aspirate were collected for confirmatory purposes for all subjects who achieved a complete response (CR) or to confirm suspected PD based solely upon declines in the platelet count and/or hemoglobin. Pharmacodynamic assessments, including serum cytokines and protein phosphorylation in circulating CLL cells, occurred before starting therapy and at designated time points thereafter.
# CCL22 = test: Example 2: serum chemokine/cytokine levels; assay type: in vivo, human; details: days 8 and 29 of therapy
# Description: as §1
# [2] = tested on: CCL3/MIP1alpha, CCL4/MIP1beta, CCL22/MDC, and TNFalpha; test: Example 1: plasma chemokine/cytokine levels by Luminex immunoassays; assay type: in vivo, human; details: Days 8 and 29 vs Day 1; CLL subjects (n=20)
# Description: FIG. 9 summarizes the inhibition of BCR-mediated chemokine/cytokines after treatment in CLL subjects.
# [3] = Example 2: entospletinib plasma pharmacokinetics; assay type: in vivo, human; details: 800 mg twice a day, fasted
# Description: Clinic visits, including laboratory tests and pharmacodynamic measurements, were scheduled for day 1 of each 28-day cycle. Blood samples for pharmacokinetic analyses of entospletinib were collected on day 1 of each 28-day cycle, on days 8, 15, and 22 of cycle 1 and on day 15 of cycle 2. Additional safety monitoring visits took place on days 8, 15, and 22 of cycle 1 and day 15 of cycle 2.
# [4] = tested on: subjects with relapsed or refractory CLL
# Method: The safety and efficacy of entospletinib was tested in a phase 2 trial in separate cohorts of subjects with CLL, indolent non-Hodgkin lymphoma (iNHL), mantle cell lymphoma (MCL), or diffuse large B-cell lymphoma (DLBCL). This trial was registered at www.clinicaltrials.gov as #NCT01799889.
# A phase 2, open-label, single-agent study was completed to evaluate the efficacy, safety, tolerability, and pharmacodynamics of entospletinib in subjects with relapsed or refractory hematologic malignancies.
# Subjects who were at least 18 years of age with a documented diagnosis of CLL, as established by the International Workshop on CLL, with progressive disease (PD) were eligible for the study. […] The presence of radiographically measurable lymphadenopathy or extranodal lymphoid malignancy as assessed by computed tomography (CT) or magnetic resonance imaging (MRI) was required for enrollment. […] A Karnofsky performance status of at least 60% and a life expectancy of at least 3 months were required. Required screening laboratory data were collected within 5 weeks before administration of study drug. Subjects with any degree of neutropenia, thrombocytopenia, or anemia attributed to the malignancy by the treating physician were eligible to enroll.
# Treatment with entospletinib was at a dose of 800 mg twice a day over 28-day cycles under fasted conditions. Fasting was defined as no food or liquids other than water for 2 hours pre- and 1 hour post-dose.
# CT or MRI scans were used to document sites of disease, identify target lesions, and assess response and disease progression. […] The findings of an independent review committee were used for analyses of PFS and other tumor control end points.
# Secondary end points included tolerability, objective response rate (ORR), duration of response (DOR), time to response, and lymph node response rate. […] Exploratory end points included plasma drug concentrations and pharmacodynamic biomarkers.
# PFS was defined as the interval from start of treatment to disease progression or death from any cause and analyzed using Kaplan-Meier methods. The findings of the Independent Review Committee (IRC) were considered primary for analyses of PFS and other tumor control responses. […] DOR was defined as the time from when the first response (CR or PR) was achieved until the earlier of the first documentation of definitive disease progression or death from any cause.
# human subjects with CLL = test: Example 1: investigator assessed nodal response in CLL subjects; assay type: in vivo; details: CLL subjects (n=29); 800 mg BID fasting
# Description: The sample size was 10-40/arm.
# [5] = tested on: phosphorylated Blnk in CD19+CD5+ circulating tumor cells; test: Example 1: BCR-mediated signaling, intracellular phosphoprotein flow cytometry; assay type: in vivo, human; details: Days 8 and 29 vs Day 1; CLL subjects (n=35)
# Description: (§2) Nominal p-values from tests of mean change of Day 8 and 29 from Day 1 using mixed model for repeated measures are <0.0005.
# [6] = tested on: phosphorylated Syk in CD19+CD5+ circulating tumor cells; test: as above; assay type: in vivo, human; details: Days 8 and 29 vs Day 1; CLL subjects (n=35)
# Description: as §2
# [7] = tested on: phosphorylated Btk in CD19+CD5+ circulating tumor cells; test: as above; assay type: in vivo, human; details: Days 8 and 29 vs Day 1; CLL subjects (n=35)
# Description: as §2
structure (smiles),measurement,setting,value
"c1cn2cc(-c3ccc4cn[nH]c4c3)nc(Nc3ccc(N4CCOCC4)cc3)c2n1 [compound of formula I, 6-(1H-indazol-6-yl)-N-(4-morpholinophenyl)imidazo[1,2-a]pyrazin-8-amine]",Serum levels of tumor necrosis factor alpha (TNF-α),[1],inhibited
same,Serum levels of CCL22,CCL22,inhibited
same,"BCR-mediated chemokine/cytokines, plasma levels",[2],inhibition
same,"Ctrough, mean (% coefficient of variation)",[3],1100 (44%) ng/mL
same,Cmax,"[3]; human, oral, read-out: Cmax, mean (% coefficient of variation)",1490 ng/mL
same,DOR exceeded by seventy-five percent of subjects,[4]; 23 responding CLL subjects,> 6.5 months
same,median DOR,[4]; 23 responding CLL subjects,not yet been reached
same,subjects achieving at least a 50% decrease in SPD from baseline,[4]; 39 evaluable CLL subjects,61.5%
same,subjects achieving reduction in adenopathy,[4]; 39 evaluable CLL subjects,94.5%
same,subjects with a less than 50% decrease in SPD from baseline,[4]; 39 evaluable CLL subjects,33%
same,"Discontinued study drug: AEs, %",[4]; CLL N = 41,(8.8%)
same,"Discontinued study drug: Death, %",[4]; CLL N = 41,(2.4%)
same,"Discontinued study drug: Progressive disease, %",[4]; CLL N = 41,(34.1%)
same,PFS exceeded by seventy-five percent of the subjects,[4]; CLL cohort,> 5.4 months
same,"death (PFS event), %","[4]; CLL cohort, 41 subjects",2.4%
same,"subjects with PFS events, %","[4]; CLL cohort, 41 subjects",31.7%
same,"subjects with disease progression, %","[4]; CLL cohort, 41 subjects",29.3%
same,24 weeks PFS (primary end point),"[4]; CLL cohort, 41 subjects, median follow up 5.5 months",69.8%
same,Median PFS,"[4]; CLL cohort, median follow up 5.5 months",not yet been reached
same,ORR,[4]; CLL subjects,56.1%
same,subjects achieving a CR,[4]; CLL subjects,no subject
same,subjects achieving a PR,[4]; CLL subjects,23 subjects
same,subjects with dose reduced to 400 mg,[4]; CLL subjects,4.9%
same,subjects with dose reduced to 600 mg,[4]; CLL subjects,14.6%
same,subjects with progressive disease (best response),[4]; CLL subjects,2.4%
same,subjects with stable disease,[4]; CLL subjects,44%
same,time for mean absolute lymphocyte count to return to baseline,[4]; CLL subjects,approximately 3 months
same,"nodal response (50% reduction in SPD) with persistent lymphocytosis, %",[4]; CLL subjects with stable disease,4.9%
same,"nodal response with persistent lymphocytosis, subjects","[4]; CLL subjects, additional to ORR",2 subjects
same,subjects requiring at least one dose reduction from the starting dose,"[4]; CLL subjects, starting dose 800 mg twice a day",19.5%
same,mean absolute lymphocyte count,"[4]; day 8, rose from 50,090","72,980 lymphocytes per microliter"
same,responding subjects with a PR at the first post-baseline evaluation,"[4]; of 23 responding subjects, scheduled at week 8",65.2%
same,differences in ORR within subgroups,"[4]; sex, age, number of prior therapies, IGHV mutation status, 17p deletion/TP53 mutation status",no significant differences
same,overall nodal response rate,human subjects with CLL,69%
same,phosphorylated Blnk in CD19+CD5+ circulating tumor cells,[5],downregulation
same,phosphorylated Syk in CD19+CD5+ circulating tumor cells,[6],downregulation
same,phosphorylated Btk in CD19+CD5+ circulating tumor cells,[7],downregulation
